Measurements taken from patent US20160354411A1, “OLIVAMINE-INDUCED IMPROVEMENT IN ENDOTHELIAL CELLS VIABILITY AND FUNCTION” (priority 2015, published 2016).

Columns and labels:
[1] = tested on: human microvascular endothelial cells; experiment: in vitro model of wound healing, time for 50% wound to heal; assay type: cell-based
Description: The time for wounds to heal by 50% under the various treatment conditions was quantified.

[2] = tested on: HMEC-1 cells; experiment: crystal violet cell viability assay; assay type: cell-based, human; settings: 24 hours; HT 0-200 μM, OL 0-800 μM, Formulation 1 0-4×
Experimental: A crystal violet cell viability assay was performed to determine the cytotoxic effects of OLIVAMINE® (compositions of hydroxytyrosol and oleuropein) composition on HMEC-1 cells. Briefly, cells were seeded on a 24-well plate and treated for 24 h dose-titration concentrations of HT (0-200 μM), OL (0-800 μM), OLIVAMINE® (compositions of hydroxytyrosol and oleuropein) composition (McCord formulation 1, dilution factor=4×, Table 8). Following treatment, cells were washed twice with 0.9% saline and fixed with […] of 4% neutral formalin for 15-30 min. Cells were then stained with […] of 0.01% (w/v) crystal violet for 30 min, washed with dH2O and left to dry under a fume hood overnight. Cells were then lysed with […] of lysis buffer for 15 min on a rotating platform and the absorbance of each well was measured at the 560 nm wavelength using a microplate spectrophotometer.
To determine whether olive phenols influence cell proliferation, a crystal violet cell viability analysis was conducted. The relative cell viability of HMEC-1 cells was investigated. Cells were incubated with varying concentrations of HT (0-200 μM), OL (0-800 μM) and Formulation 1 (Table 8, 0-4×) 24 hours.

[3] = tested on: human umbilical vein endothelial cells (HUVEC); experiment: HUVEC cell migration / wound gap closure with or without 30 mM glucose pre-treatment; assay type: cell-based; settings: for Time for 50% wound to heal: 24 hours incubation before wounding; for Healing Improvement (%): compared to untreated cells
Experimental: Additional wound studies were conducted using umbilical cord stem cells in addition to the use of hydroxytyrosol compositions and commercially-available OLIVAMINE® (compositions of hydroxytyrosol and oleuropein) compositions (20 μM hydroxytyrosol, 80 μM oleuropein, 2 mM N-acetylcysteine, 50 μM L-proline, 2 mM glycine and 100 μM taurine). These were evaluated with human umbilical vein endothelial cells (HUVEC) to assess impact on cell migration and wound healing.
HUVEC cells. Human umbilical vein endothelial cells are derived from the endothelium of veins from the umbilical cord (HUVEC primary cells purchased from Lonza). HUVECs have been widely used as a model system for the study of the regulation of endothelial cell function and the role of the endothelium in response of the blood vessel wall to stretch, shear forces and the development of atherosclerotic plaques and angiogenesis. For the following study, HUVECs are a primary endothelial cell line as a model system for the function and pathology of endothelial cells. We investigated improvement in cell proliferation and migration following treatment with OLIVAMINE® (compositions of hydroxytyrosol and oleuropein) composition.
In this study, HUVEC cells were pre-treated with or without 30 mM glucose for 3 days (72 hours). The cells were then equilibrated for a day (24 hours), and incubated with 50 μM hydroxytyrosol or OLIVAMINE® (compositions of hydroxytyrosol and oleuropein) formulation (20 μM hydroxytyrosol, 80 μM oleuropein, 2 mM N-acetylcysteine, 50 μM L-proline, 2 mM glycine and 100 μM taurine) for 24 hours before wounding.
Images were taken at intervals and the wound gap was quantified over time using IMAGE® analysis software. […] The distances measured are depicted in the Figures by the horizontal solid lines indicating the distance between the gaps of the wound. 100 measurements were taken per image and a mean gap distance was determined. As shown in FIGS. 7-8 the initial wound and 24 hour measurement are shown by the images, under both control (FIG. 7A) and high glucose (FIG. 8A). In addition the reduction in percentage of open wound is further shown graphically for the control (FIG. 7B) and high glucose (FIG. 8B) conditions. The time for 50% of the wound to heal was quantified as well as the percentage of improvement compared to untreated cells.

[4] = tested on: proliferative cells; experiment: induction or maintenance of a quiescent cell state; assay type: cell-based; settings: evidence obtained to-date
Experimental: More specifically, when present at a concentration above a threshold level, hydroxytyrosol can induce proliferative cells into a quiescent state and help maintain cells in a pre-existing quiescent state. Based upon evidence obtained to-date, the threshold concentration is about 10 μM hydroxytyrosol.

[5] = Table 9, single ingredients, Present Art and Present Art without one ingredient

Compound	Time for 50% wound to heal [1, 5]	effect on cell proliferation / viability [2]	Time for 50% wound to heal ([1]; Table 1)	also measured
NCC(=O)O [Glycine]	20.73 h			
OCCc1ccc(O)c(O)c1 [Hydroxytyrosol]	19.25 h	no significantly effects on cell proliferation	19.25 h	less effective than the present art combination ([1]; hydroxytyrosol alone): 30%; Time for 50% wound to heal ([3]; High Glucose (30 mM, 72 hours)): 15.2 h; Healing Improvement (%) ([3]; High Glucose): 30%; Time for 50% wound to heal ([3]; no glucose pre-treatment): 19.7 h; Healing Improvement (%) ([3]; no glucose pre-treatment): 10%; threshold concentration for inducing or maintaining quiescence [4]: about 10 μM
NCCS(=O)(=O)O [L-Taurine]	22.5 h			
O=C(O)[C@@H]1CCCN1 [L-proline]	23.24 h			
CC(=O)N[C@@H](CS)C(=O)O [N-acetylcysteine, N-acetyl-L-cysteine, reference compound]	28.87 h		28.87 h	effect on time and extent of wound healing (in words) ([1]; compared to untreated or to single ingredients, absence and presence of glucose): increased the time to 50% healing compared to untreated
C/C=C1/[C@H](O[C@@H]2O[C@H](CO)[C@@H](O)[C@H](O)[C@H]2O)OC=C(C(=O)OC)[C@H]1CC(=O)OCCc1ccc(O)c(O)c1 [Oleuropein]	25.62 h	no significantly effects on cell proliferation	25.62 h	
